Calls of active or inactive are those of the source. The rule behind the calls is not given here. Where a SMILES comes first, the peptide text is derived from it. [ ]: non-standard residue; d: D form. The star is where a group is joined. X1 = N[C@@H](CCCCNC(=O)CC[C@H](NC(=O)CCCCCCCCCCCCCCCCCCC(=O)O)C(=O)O)C(=O)NCCCC[C@H](N)C(=O)N[C@@H](CCCCNC(=O)C*)C(=O)O; X4 = O=C(O)CCCCCCCCCCCCCCCCCCC(=O)NCCOCCOCC(=O)N[C@@H](CCC(=O)N[C@@H](CCC(=O)N[C@@H](CCCCNC(=O)C*)C(=O)O)C(=O)O)C(=O)O; X3 = O=C(O)CCCCCCCCCCCCCCCCC(=O)NCCOCCOCC(=O)N[C@@H](CCC(=O)N[C@@H](CCC(=O)N[C@@H](CCCCNC(=O)C*)C(=O)O)C(=O)O)C(=O)O; Aib = CC(C)(N)C(=O)O
Columns and labels:
[1] = test system: Mus musculus; test: Glucose-lowering effect in male ICR mouse assessed as reduction in plasma glucose AUC (0 to 72 hrs) at 30 nmol/kg, sc pretreated for 71 hrs followed by […] administration and measured after 60 mins by oral glucose tolerance test; type: functional, organism-based
[2] = target: Glucagon-like peptide 1 receptor (Homo sapiens, UniProt P43220); test: Agonist activity at human GLP-1R expressed in CHO cells assessed as increase in cAMP production incubated for 30 mins by Eu-cAMP tracer based microplate reader analysis; type: functional, cell-based
Chain of Glucagon-like peptide 1 receptor (P43220 whole entry): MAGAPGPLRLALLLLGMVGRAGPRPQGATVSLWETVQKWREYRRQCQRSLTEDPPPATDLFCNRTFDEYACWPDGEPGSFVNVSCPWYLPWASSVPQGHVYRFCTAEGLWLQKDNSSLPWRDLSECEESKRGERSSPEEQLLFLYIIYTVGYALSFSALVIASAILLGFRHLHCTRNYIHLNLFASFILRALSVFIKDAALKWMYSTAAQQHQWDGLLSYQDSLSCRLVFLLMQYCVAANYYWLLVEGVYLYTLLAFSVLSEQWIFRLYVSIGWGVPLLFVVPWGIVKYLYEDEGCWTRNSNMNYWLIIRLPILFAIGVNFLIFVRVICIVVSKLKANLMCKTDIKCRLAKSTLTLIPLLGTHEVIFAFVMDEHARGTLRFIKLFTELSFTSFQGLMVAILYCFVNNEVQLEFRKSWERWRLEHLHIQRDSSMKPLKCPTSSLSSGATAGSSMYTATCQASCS

[3] = target: T1, Gastric inhibitory polypeptide receptor (Homo sapiens, UniProt P48546); test: Agonist activity at human GIPR expressed in CHO cells assessed as increase in cAMP production incubated for 30 mins by Eu-cAMP tracer based microplate reader analysis; type: functional, cell-based
T1 sequence (P48546 whole entry): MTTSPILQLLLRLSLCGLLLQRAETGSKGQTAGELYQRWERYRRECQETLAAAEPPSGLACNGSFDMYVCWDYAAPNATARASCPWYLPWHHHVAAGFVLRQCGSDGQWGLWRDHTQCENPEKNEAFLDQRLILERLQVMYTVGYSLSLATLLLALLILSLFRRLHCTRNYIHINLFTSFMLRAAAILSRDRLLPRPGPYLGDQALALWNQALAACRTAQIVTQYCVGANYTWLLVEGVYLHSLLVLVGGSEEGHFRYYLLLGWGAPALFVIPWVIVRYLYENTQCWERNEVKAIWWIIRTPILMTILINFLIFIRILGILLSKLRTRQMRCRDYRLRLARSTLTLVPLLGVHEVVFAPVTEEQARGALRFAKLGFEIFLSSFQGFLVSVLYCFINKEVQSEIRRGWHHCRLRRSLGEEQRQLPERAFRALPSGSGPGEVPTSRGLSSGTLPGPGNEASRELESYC

Row | Structure (SMILES) | Activity [1] | EC50 [2] | EC50 [3]
1 | CC(C)C[C@H](NC(=O)[C@H](CC(C)C)NC(=O)[C@H](Cc1c[nH]c2ccccc12)NC(=O)[C@H](CCC(N)=O)NC(=O)[C@@H](NC(=O)[C@H](Cc1ccccc1)NC(=O)[C@H](CC(C)C)NC(=O)[C@H](CCCCN)NC(=O)[C@H](C)NC(=O)[C@H](C)NC(=O)[C@H](CCC(N)=O)NC(=O)[C@H](CCCCN)NC(=O)[C@H](CCC(=O)O)NC(=O)[C@H](CC(C)C)NC(=O)[C@H](CSCC(=O)NCCCC[C@H](NC(=O)CC[C@H](NC(=O)CC[C@H](NC(=O)COCCOCCNC(=O)CCCCCCCCCCCCCCCCCCC(=O)O)C(=O)O)C(=O)O)C(=O)O)NC(=O)[C@H](Cc1ccc(O)cc1)NC(=O)[C@H](CO)NC(=O)[C@H](Cc1ccc(O)cc1)NC(=O)[C@H](CC(=O)O)NC(=O)[C@H](CO)NC(=O)[C@@H](NC(=O)[C@H](Cc1ccccc1)NC(=O)[C@@H](NC(=O)CNC(=O)[C@H](CCC(=O)O)NC(=O)C(C)(C)NC(=O)[C@@H](N)Cc1ccc(O)cc1)[C@@H](C)O)[C@@H](C)O)C(C)C)C(=O)N[C@@H](C)C(=O)NCC(=O)NCC(=O)N1CCC[C@H]1C(=O)N[C@@H](CO)C(=O)N[C@@H](CO)C(=O)NCC(=O)N[C@@H](C)C(=O)N1CCC[C@H]1C(=O)N1CCC[C@H]1C(=O)N1CCC[C@H]1C(=O)N[C@@H](CO)C(N)=O (H-Y[Aib]EGTFTSDYSYC(X4)LEKQAAKLFVQWLLAGGPSSGAPPPS-NH2) | Active | 0.25 nM | 0.064 nM
2 | CC(C)C[C@H](NC(=O)[C@H](CC(C)C)NC(=O)[C@H](Cc1c[nH]c2ccccc12)NC(=O)[C@H](CCC(N)=O)NC(=O)[C@@H](NC(=O)[C@H](Cc1ccccc1)NC(=O)[C@H](CC(C)C)NC(=O)[C@H](CCCCN)NC(=O)[C@H](C)NC(=O)[C@H](C)NC(=O)[C@H](CCC(N)=O)NC(=O)[C@H](CSCC(=O)NCCCC[C@H](NC(=O)[C@@H](N)CCCCNC(=O)[C@@H](N)CCCCNC(=O)CC[C@H](NC(=O)CCCCCCCCCCCCCCCCCCC(=O)O)C(=O)O)C(=O)O)NC(=O)[C@H](CCC(=O)O)NC(=O)[C@H](CC(C)C)NC(=O)[C@H](Cc1ccc(O)cc1)NC(=O)[C@H](Cc1ccc(O)cc1)NC(=O)[C@H](CO)NC(=O)[C@H](Cc1ccc(O)cc1)NC(=O)[C@H](CC(=O)O)NC(=O)[C@H](CO)NC(=O)[C@@H](NC(=O)[C@H](Cc1ccccc1)NC(=O)[C@@H](NC(=O)CNC(=O)[C@H](CCC(=O)O)NC(=O)C(C)(C)NC(=O)[C@@H](N)Cc1ccc(O)cc1)[C@@H](C)O)[C@@H](C)O)C(C)C)C(=O)N[C@@H](C)C(=O)NCC(=O)NCC(=O)N1CCC[C@H]1C(=O)N[C@@H](CO)C(=O)N[C@@H](CO)C(=O)NCC(=O)N[C@@H](C)C(=O)N1CCC[C@H]1C(=O)N1CCC[C@H]1C(=O)N1CCC[C@H]1C(=O)N[C@@H](CO)C(N)=O (H-Y[Aib]EGTFTSDYSYYLEC(X1)QAAKLFVQWLLAGGPSSGAPPPS-NH2) | Active | 0.52 nM | 0.012 nM
3 | CC(C)C[C@H](NC(=O)[C@H](CC(C)C)NC(=O)[C@H](Cc1c[nH]c2ccccc12)NC(=O)[C@H](CCC(N)=O)NC(=O)[C@@H](NC(=O)[C@H](Cc1ccccc1)NC(=O)[C@H](CC(C)C)NC(=O)[C@H](CSCC(=O)NCCCC[C@H](NC(=O)CC[C@H](NC(=O)CC[C@H](NC(=O)COCCOCCNC(=O)CCCCCCCCCCCCCCCCC(=O)O)C(=O)O)C(=O)O)C(=O)O)NC(=O)[C@H](C)NC(=O)[C@H](C)NC(=O)[C@H](CCC(N)=O)NC(=O)[C@H](CCCCN)NC(=O)[C@H](CCC(=O)O)NC(=O)[C@H](CC(C)C)NC(=O)[C@H](Cc1ccc(O)cc1)NC(=O)[C@H](Cc1ccc(O)cc1)NC(=O)[C@H](CO)NC(=O)[C@H](Cc1ccc(O)cc1)NC(=O)[C@H](CC(=O)O)NC(=O)[C@H](CO)NC(=O)[C@@H](NC(=O)[C@H](Cc1ccccc1)NC(=O)[C@@H](NC(=O)CNC(=O)[C@H](CCC(=O)O)NC(=O)C(C)(C)NC(=O)[C@@H](N)Cc1ccc(O)cc1)[C@@H](C)O)[C@@H](C)O)C(C)C)C(=O)N[C@@H](C)C(=O)NCC(=O)NCC(=O)N1CCC[C@H]1C(=O)N[C@@H](CO)C(=O)N[C@@H](CO)C(=O)NCC(=O)N[C@@H](C)C(=O)N1CCC[C@H]1C(=O)N1CCC[C@H]1C(=O)N1CCC[C@H]1C(=O)N[C@@H](CO)C(N)=O (H-Y[Aib]EGTFTSDYSYYLEKQAAC(X3)LFVQWLLAGGPSSGAPPPS-NH2) | Active | 1.02 nM | 0.67 nM
4 | CC(C)C[C@H](NC(=O)[C@H](CC(C)C)NC(=O)[C@H](Cc1c[nH]c2ccccc12)NC(=O)[C@H](CCC(N)=O)NC(=O)[C@@H](NC(=O)[C@H](Cc1ccccc1)NC(=O)[C@H](CC(C)C)NC(=O)[C@H](CSCC(=O)NCCCC[C@H](NC(=O)CC[C@H](NC(=O)CC[C@H](NC(=O)COCCOCCNC(=O)CCCCCCCCCCCCCCCCCCC(=O)O)C(=O)O)C(=O)O)C(=O)O)NC(=O)[C@H](C)NC(=O)[C@H](C)NC(=O)[C@H](CCC(N)=O)NC(=O)[C@H](CCCCN)NC(=O)[C@H](CCC(=O)O)NC(=O)[C@H](CC(C)C)NC(=O)[C@H](Cc1ccc(O)cc1)NC(=O)[C@H](Cc1ccc(O)cc1)NC(=O)[C@H](CO)NC(=O)[C@H](Cc1ccc(O)cc1)NC(=O)[C@H](CC(=O)O)NC(=O)[C@H](CO)NC(=O)[C@@H](NC(=O)[C@H](Cc1ccccc1)NC(=O)[C@@H](NC(=O)CNC(=O)[C@H](CCC(=O)O)NC(=O)C(C)(C)NC(=O)[C@@H](N)Cc1ccc(O)cc1)[C@@H](C)O)[C@@H](C)O)C(C)C)C(=O)N[C@@H](C)C(=O)NCC(=O)NCC(=O)N1CCC[C@H]1C(=O)N[C@@H](CO)C(=O)N[C@@H](CO)C(=O)NCC(=O)N[C@@H](C)C(=O)N1CCC[C@H]1C(=O)N1CCC[C@H]1C(=O)N1CCC[C@H]1C(=O)N[C@@H](CO)C(N)=O (H-Y[Aib]EGTFTSDYSYYLEKQAAC(X4)LFVQWLLAGGPSSGAPPPS-NH2) | Active | 1.25 nM | 0.73 nM
5 | CC(C)C[C@H](NC(=O)[C@H](CC(C)C)NC(=O)[C@H](Cc1c[nH]c2ccccc12)NC(=O)[C@H](CSCC(=O)NCCCC[C@H](NC(=O)CC[C@H](NC(=O)CC[C@H](NC(=O)COCCOCCNC(=O)CCCCCCCCCCCCCCCCCCC(=O)O)C(=O)O)C(=O)O)C(=O)O)NC(=O)[C@@H](NC(=O)[C@H](Cc1ccccc1)NC(=O)[C@H](CC(C)C)NC(=O)[C@H](CCCCN)NC(=O)[C@H](C)NC(=O)[C@H](C)NC(=O)[C@H](CCC(N)=O)NC(=O)[C@H](CCCCN)NC(=O)[C@H](CCC(=O)O)NC(=O)[C@H](CC(C)C)NC(=O)[C@H](Cc1ccc(O)cc1)NC(=O)[C@H](Cc1ccc(O)cc1)NC(=O)[C@H](CO)NC(=O)[C@H](Cc1ccc(O)cc1)NC(=O)[C@H](CC(=O)O)NC(=O)[C@H](CO)NC(=O)[C@@H](NC(=O)[C@H](Cc1ccccc1)NC(=O)[C@@H](NC(=O)CNC(=O)[C@H](CCC(=O)O)NC(=O)C(C)(C)NC(=O)[C@@H](N)Cc1ccc(O)cc1)[C@@H](C)O)[C@@H](C)O)C(C)C)C(=O)N[C@@H](C)C(=O)NCC(=O)NCC(=O)N1CCC[C@H]1C(=O)N[C@@H](CO)C(=O)N[C@@H](CO)C(=O)NCC(=O)N[C@@H](C)C(=O)N1CCC[C@H]1C(=O)N1CCC[C@H]1C(=O)N1CCC[C@H]1C(=O)N[C@@H](CO)C(N)=O (H-Y[Aib]EGTFTSDYSYYLEKQAAKLFVC(X4)WLLAGGPSSGAPPPS-NH2) | Active | 0.44 nM | 1.12 nM
6 | CC(C)C[C@H](NC(=O)[C@H](CC(C)C)NC(=O)[C@H](Cc1c[nH]c2ccccc12)NC(=O)[C@H](CS)NC(=O)[C@@H](NC(=O)[C@H](Cc1ccccc1)NC(=O)[C@H](CC(C)C)NC(=O)[C@H](CCCCN)NC(=O)[C@H](C)NC(=O)[C@H](C)NC(=O)[C@H](CCC(N)=O)NC(=O)[C@H](CCCCN)NC(=O)[C@H](CCC(=O)O)NC(=O)[C@H](CC(C)C)NC(=O)[C@H](Cc1ccc(O)cc1)NC(=O)[C@H](Cc1ccc(O)cc1)NC(=O)[C@H](CO)NC(=O)[C@H](Cc1ccc(O)cc1)NC(=O)[C@H](CC(=O)O)NC(=O)[C@H](CO)NC(=O)[C@@H](NC(=O)[C@H](Cc1ccccc1)NC(=O)[C@@H](NC(=O)CNC(=O)[C@H](CCC(=O)O)NC(=O)C(C)(C)NC(=O)[C@@H](N)Cc1ccc(O)cc1)[C@@H](C)O)[C@@H](C)O)C(C)C)C(=O)N[C@@H](C)C(=O)NCC(=O)NCC(=O)N1CCC[C@H]1C(=O)N[C@@H](CO)C(=O)N[C@@H](CO)C(=O)NCC(=O)N[C@@H](C)C(=O)N1CCC[C@H]1C(=O)N1CCC[C@H]1C(=O)N1CCC[C@H]1C(=O)N[C@@H](CO)C(N)=O (H-Y[Aib]EGTFTSDYSYYLEKQAAKLFVCWLLAGGPSSGAPPPS-NH2) |  | 0.57 nM | 2.57 nM
7 | CC(C)C[C@H](NC(=O)[C@H](CCCCN)NC(=O)[C@H](C)NC(=O)[C@H](C)NC(=O)[C@H](CCC(N)=O)NC(=O)[C@H](CCCCN)NC(=O)[C@H](CCC(=O)O)NC(=O)[C@H](CC(C)C)NC(=O)[C@H](Cc1ccc(O)cc1)NC(=O)[C@H](Cc1ccc(O)cc1)NC(=O)[C@H](CO)NC(=O)[C@H](Cc1ccc(O)cc1)NC(=O)[C@H](CC(=O)O)NC(=O)[C@H](CO)NC(=O)[C@@H](NC(=O)[C@H](Cc1ccccc1)NC(=O)[C@@H](NC(=O)CNC(=O)[C@H](CCC(=O)O)NC(=O)C(C)(C)NC(=O)[C@@H](N)Cc1ccc(O)cc1)[C@@H](C)O)[C@@H](C)O)C(=O)N[C@@H](Cc1ccccc1)C(=O)N[C@H](C(=O)N[C@@H](CCC(N)=O)C(=O)N[C@@H](Cc1c[nH]c2ccccc12)C(=O)N[C@@H](CC(C)C)C(=O)N[C@@H](CS)C(=O)N[C@@H](C)C(=O)NCC(=O)NCC(=O)N1CCC[C@H]1C(=O)N[C@@H](CO)C(=O)N[C@@H](CO)C(=O)NCC(=O)N[C@@H](C)C(=O)N1CCC[C@H]1C(=O)N1CCC[C@H]1C(=O)N1CCC[C@H]1C(=O)N[C@@H](CO)C(N)=O)C(C)C (H-Y[Aib]EGTFTSDYSYYLEKQAAKLFVQWLCAGGPSSGAPPPS-NH2) |  | 2.83 nM | 2.33 nM
